Experimental data from patent US20230165922A1, “APPLICATION OF RADIX GENTIANAE MACROPHYLLAE AND MONOMER COMPOUND THEREOF IN KILLING MITES” (SMILEBIOTECK ZHUHAI LIMITED, priority 2020, published 2023).

Experiments:
D.folliculorum [1] = test: Preliminary in-vitro screening of monomer compounds for effect on survival time of Demodex mites; details: 20° C., humidity 96%; for Survival time (hours) of D.folliculorum in vitro: 35 µL monomer compound solution in 10% DMSO, observed every 2 hours, mean ± SD
Source text: The names and molecular formulas of the monomer compounds are shown in the following table: The monomer compounds were purchased from Chengdu Herbpurify Co., Ltd., and were standard references.
The powders of the monomer compounds shown in Table 2 were separately dissolved in dimethyl sulfoxide (DMSO), and then diluted with sterilized double-distilled water to make the final concentration of DMSO 10%, which could not shorten the survival time of Demodex mites as per a controlled study. The negative control group received DMSO mixed with sterilized water at a final concentration of 10%.
As in Example 1, 35 µL of each solution was added to a glass slide, and the survival of the mites was observed under an optical microscope every 2 hours. During the experiment, the Demodex mites were observed by two skilled operators separately for the activities (bodies, limbs and the like) through the microscope to determine whether they were dead or not. If the two operators gave different results, the survival status was determined independently by a third skilled operator. The in-vitro culture was conducted in a climatic chamber at a temperature of 20° C. and a humidity of 96%. During the observation, the glass slides were transported in a wet box to ensure the high humidity.
In this experiment, statistical analysis was conducted using SPSS22.0 statistical software, normality test was conducted using Shapiro-Wilk test, and homogeneity of variance test was conducted using Bartlett’s test.
Effects of monomer compounds of traditional Chinese medicine on survival time of D.folliculorum The in-vitro culture of the Demodex mites was conducted in an environment at a humidity of 96% and a temperature of 20° C. The survival of the Demodex mites was observed dynamically and the survival time was recorded.

D.folliculorum [2] = test: In-vitro culture of Demodex mites with traditional Chinese medicine decoctions (survival time); details: 20° C., humidity 96%
Procedure: The ethical guidelines of “The Declaration of Helsinki” and “Measures for the Ethical Review of Biomedical Research Involving Humans” were strictly followed in this study. Demodex mites from patients diagnosed with ocular Demodex infestation were collected in this study. Subjects who met the inclusion criteria were enrolled after giving an informed conversation and signing an informed consent.
The detection of Demodex mites was performed according to the conventional method of eyelash microscopy (12,20). 3 eyelashes were collected from each eyelid, with a total of 12 eyelashes. […] Demodex mites in all periods were counted and classified according to morphology (specific standard: D.brevis with a head-to-body ratio of 1:1, and D.folliculorum with a head-to-body ratio of 1:3 to 1:4). […]
On the basis of the above detection of Demodex mites, 35 µL of the solutions was separately added to the slides, and the survival of the mites was observed every 2 hours. […] If the two operators gave different results, the survival status was determined independently by a third skilled operator. […]
60 g of dried ready-to-use forms was weighed using an electronic balance, and soaked in water with an amount of 10 times (600 mL) in a marmite overnight. […]

Row | SMILES | Survival time (hours) of D.folliculorum in vitro (D.folliculorum [1]) | further results
1 | COc1cc2ccc(=O)oc2cc1O [Scopoletin] | 54.67 ± 25.66 h | 
2 | C=C(C)[C@@H]1CC[C@]2(C)[C@H](CC=C3[C@@H]4[C@@H](C)[C@H](C)CC[C@]4(C)CC[C@]32C)[C@@]1(C)CCC(=O)O [Roburic acid] | 63.41 ± 12.20 h | 
3 | CC1=CCC(O)(C(C)C)CC1 (centres unmarked) [T40, terpinen-4-ol] |  | Survival time (hours) of D.folliculorum in vitro (D.folliculorum [2]; 35 µL solution on slide, decoctions of 60 g medicine made up to 100 mL water, TTO and T4O 10% in sterilized water, observed every 2 hours, mean ± SD): 40.50 ± 13.12 h; Difference in in-vitro survival time of Demodex mites versus control groups (statistical comparison) (D.folliculorum [2]; Bonferroni comparison with negative control sterilized water (and TTO, T40 groups)): did not show significant differences
4 | C[C@@H]1[C@H]2[C@H](O[C@@H]3O[C@H](CO)[C@@H](O)[C@H](O)[C@H]3O)OC=C(C(=O)O)[C@H]2C[C@@H]1O [Loganic acid] | 61.56 ± 22.84 h | 
5 | C=C[C@H]1[C@H](O[C@@H]2O[C@H](CO)[C@@H](O)[C@H](O)[C@H]2O)OC=C2C(=O)OCC[C@]21O [Swertiamarin] | 59.68 ± 10.97 h | 
6 | C=C[C@H]1[C@H](O[C@@H]2O[C@H](CO)[C@@H](O)[C@H](O)[C@H]2O)OC=C2C(=O)OCC[C@H]21 [Sweroside] | 60.79 ± 25.98 h | 
7 | C=C[C@@H]1C2=CCOC(=O)C2=CO[C@H]1O[C@@H]1O[C@H](CO)[C@@H](O)[C@H](O)[C@H]1O [Gentiopicroside] | 37.31 ± 36.06 h | Survival time (hours) of D.folliculorum in vitro (D.folliculorum [1]; listed as gentiopicroside): 37.31 ± 36.06 h; Effect on in-vitro survival time of Demodex mites versus 10% DMSO negative control (D.folliculorum [1]; compared with 10% DMSO solution): significantly shorter
8 | COC(=O)c1c2c(c3ccccc3c1O)OC(C)(C)C=C2 [Mollugin] | 61.10 ± 25.12 h | 
